Measured values reported in patent US11028077B2, “Crystalline pharmaceutical and methods of preparation and use thereof” (NOVARTIS PHARMACEUTICALS CORPORATION, priority 2008, dated 2021).

Tested on: tester strains
Experiment: In vitro Ames bacterial reverse mutation assay
Format: cell-based
Details: presence or absence of microsomal (S9) enzymes
From the text: Therefore, the compound of Formula I was judged to be not mutagenic.

Compound: CS(=O)(=O)c1cccc(C[C@H](NC(=O)c2c(Cl)cc3c(c2Cl)CCN(C(=O)c2ccc4ccoc4c2)C3)C(=O)O)c1 [compound of Formula I]
- mutagenicity (revertants per plate): not mutagenic
